In US20120269797A1, “METHOD FOR INHIBITING THE MATURATION OF DENDRITIC CELLS” (priority 2009, published 2012):

Assays:
[1] = system: murine DCs / allogeneic murine T cells; test: DC-mediated T cell proliferation, allogeneic murine T cells with TNF-matured murine DCs; format: cell-based; settings: 72 hours, three different concentrations; FIG. 3
Method: Allogeneic murine T cells were incubated with TNF-matured murine DCs for 72 hours, in the presence of three different concentrations of Velcade®.

human DCs [2] = settings: two concentrations added Day 5, matured two days with maturation cocktail; FIG. 2
Method: Immature human DCs were mixed with two different concentrations of Velcade® on Day 5, and subsequently matured for another two days using the maturation cocktail. Subsequently, the expression of the surface molecules that are typical for the maturation of human DCs was analyzed. […] The control (mock) remained untreated.

[3] = system: murine DCs generated ex vivo
Method: In order to test the effect of PIs also in vivo, Velcade® was applied to mice in vivo, then bone marrow was isolated and the typical bone marrow DCs were generated from this.
C57B1/6 mice were injected with 0.75 mg/kg Velcade® i.v. three times. The injection took place within five days, with an interval of one day, in each instance. An hour after the last injection, removal of the bone marrow from femur and tibia took place to generate the murine DCs. On Day 8 of cultivation, the cells were matured with LPS. On the subsequent day, the expression of the surface molecules was investigated by means of FACS analysis.

human DCs [4] = test: DC-mediated T cell stimulation by MLR assay, human DCs; format: cell-based; settings: DCs incubated during maturation; FIG. 4
Method: The T cell stimulatory capacity of mature DCs can be tested in vitro by means of the so-called “mixed leukocyte reaction” (MLR) assay. […] Human DCs were incubated with Velcade® during maturation and subsequently, the DC-mediated T cell stimulation was investigated by means of MLR assay.

murine DCs = test: maturation of murine dendritic cells, surface molecules by FACS analysis; format: cell-based; settings: different concentrations, Day 8 to Day 10, matured last 16 hours with LPS; FIG. 1
Method: Murine DCs were incubated with different concentrations of the proteasome inhibitor Velcade® from Day 8 to Day 10, and were matured during the last 16 hours, in the presence of LPS. In order to determine the phenotypic DC maturation, in other words the increase in the expression level of specific cell surface molecules, the cells were subsequently characterized using monoclonal antibodies and FACS analysis. […] However, only completely matured DCs are able to induce potent immune responses. The control (mock) remained untreated.

mature DCs = test: mixed leukocyte reaction (MLR) assay, T cell stimulatory capacity of mature DCs; format: cell-based; settings: see FIGS. 3 and 4
Description: The T cell stimulatory capacity of mature DCs can be tested in vitro by means of the so-called “mixed leukocyte reaction” (MLR) assay. […] This functional test therefore reflects the phenotypic effects of the PI treatment—namely the blockade of full maturation of the DCs—very well.

[5] = system: human DC/T cell co-cultures; test: cytokine production in human DC/T cell co-cultures (CBA technology); format: cell-based
Method: During DC-mediated T cell stimulation, the production of cytokines (among them IFN, IL-2, IL-6, TNF) takes place, which can be detected in the culture top fraction. […] Immature human […] were incubated with Velcade®, matured for 48 hours, and subsequently cultivated together with allogeneic human T cells for another 72 hours. Subsequently, cell culture top fractions were taken and the release of pro-inflammatory cytokines was analyzed by means of CBA technology. […] The control (mock) remained untreated.

[6] = system: murine (DC:T) cell co-cultures; test: cytokine and chemokine production in murine DC/T cell co-cultures; format: cell-based; settings: 72 hours, different concentrations; FIG. 5
Method: The production of INFy and MCP-1 was determined from cell culture top fractions of murine (DC:T) cell co-cultures. For this purpose, DCs were incubated with allogeneic T cells, in the presence of different concentrations of Velcade®, for 72 hours. […] The control (mock) remained untreated.

[7] = 0.75 mg/kg i.v. three times, FIG. 7b

## CC(C)C[C@H](NC(=O)[C@H](Cc1ccccc1)NC(=O)c1cnccn1)B(O)O [Velcade®]
[1]
  DC-mediated T cell proliferation: reduces the DC-mediated T cell proliferation in a manner that is dependent on dose
Human DCs [2]
  expression of CD80, CCR7, CD25, MHC I and CD83: clear reduction
[3]; 0.75 mg/kg i.v. three times, DCs matured with LPS on Day 8, FIG. 7a
  surface expression of CD25, CD40, CD80 and CD86: reduction in the surface expression
[3]; [7]
  expression of MHC Class II molecules: also reduced
  percentage of MHC II highly expressing cells:MHC II interm. expressing cells: shifted in favor of the MCH II interm. expressing cells
[3]; applied in vivo to mice, TNF-stimulated and LPS-stimulated DCs, FIG. 7
  population of the mature DCs (CD40, CD25, CD83 highly expressing): reduces the population of the mature DCs
Human DCs [4]
  DC-mediated T cell stimulation (stimulatory capacity of DCs): clear reduction in their stimulatory capacity
Murine DCs
  surface expression of CD25, CD40, CD80, CD86 and CD83: very clearly reduces
Mature DCs
  DC-mediated T cell stimulation: able to block DC-mediated T cell stimulation
[5]; culture top fraction, summary of FIGS. 5 and 6 (murine and human)
  cytokine production (IFN, IL-2, IL-6, TNF) during DC-mediated T cell stimulation: able to block this cytokine production, as a function of concentration
[5]; matured 48 hours, co-culture with allogeneic T cells 72 hours, FIG. 6
  secretion of IL-2, IL-6, INFy and TNF: clearly reduced secretion
[6]
  expression of INFy and MCP-1 in cell culture top fractions: clearly reduced expression
